The record followed here is PMC8590286, “A novel CD123-targeted therapeutic peptide loaded by micellar delivery system combats refractory acute myeloid leukemia” (Journal of Hematology & Oncology, 2021).

Counter-ions that a name gives are not always drawn.

One test concerns AE & CKIT^D816V mice. The test is described as follows: Survival experiments of Ara-C or HHT in AE & CKIT^D816V AML mice. The following applies: for median survival of AML mice treated with HHT: 250 μg/kg i.p. every 2 days from day 9, n=8; for median survival of AML mice treated with Ara-C: 25, 50 and 100 mg/kg i.p. daily for 4 days from day 9, versus Con, n=9. In kind it is in vivo, mouse. The procedure:
The regimen of cytarabine hydrochloride (Ara-C): On day 9 after AE & CKIT^D816V cells implantation, the mice were randomly divided into 4 groups (n=9) including Con (5% glucose), 25, 50 and 100 mg/kg Ara-C. All mice were treated with daily intraperitoneal (i.p.) injections for 4 days and stopped. The survival of the mice was recorded every day.
The regimen of homoharringtonine (HHT): On day 9 after AE & CKIT^D816V cells implantation, the mice were randomly divided into 2 groups (n=8) and i.p. injected with 5% glucose and 250 μg/kg HHT. The administration was given every 2 days. The survival of the mice was recorded every day.
Fig. S7. Therapeutic efficacy of Ara-C or HHT in AE & CKIT^D816V mice. (A) The median survival of AML mice treated with Ara-C was not prolonged compared with the Con group (n=9). […] On day 9 after AE & CKIT^D816V cells implantation, AML mice were treated with i.p. injection of 5% glucose, Ara-C (25, 50 and 100 mg/kg) or HHT (250 μg/kg) as the regimens described.

For test [1], the system named is CD123^− AML cell line HL-60. Kind of test: Flow cytometry binding of FITC-labeled peptide to HL-60 cells. In kind it is cell-based, human. The following applies: 0.1 and 0.5 μM, 0.5 h. How it is done:
(§1) Fig. S1. Affinity of PO-6 and ^mPO-6 to different leukemia cells. The MOLM-13, K562 or HL-60 cells was incubated with PO-6 or ^mPO-6 at 0.1 and 0.5 μM for 0.5 h. Resulting cells were collected and subjected to C6 Accuri® flow cytometer.
(§2) MOLM-13, HL-60 and K562 cells of 4×10^5/mL were incubated with FITC-labeled PO-6 or ^mPO-6 at 0.1 μM and 0.5 μM for 0.5 h. After twice washed with PBS, subjected to C6 Accuri® flow cytometer (Accuri Cytometers, Ann Arbor, MI) and 1×10^4 cells were collected. Acquired data were analyzed by CFlow Plus software.
On the technique in general: A flow cytometer gives signals particle by particle.

In test [2] the test system is chronic myeloid leukemia cell line K562 cells. The test is described as follows: Flow cytometry binding of FITC-labeled peptide to K562 cells. In kind it is cell-based, human. As to conditions: 0.1 and 0.5 μM, 0.5 h. The procedure:
as §1, §2

In test [3] the test system is CD123^+ AML cell line MOLM-13 cells. The test is described as follows: Flow cytometry binding of FITC-labeled peptide/micelles to MOLM-13 cells. In kind it is cell-based, human. The following applies: 0.1 and 0.5 μM, 0.5 h. The procedure:
Fig. 1 A Affinity of ^mPO-6 to MOLM-13 cells incubated at 0.1 and 0.5 μM for 0.5 h. B Images of ^mPO-6 bound with MOLM-13 cells at 0.1 μM for 0.5 h obtained from the laser confocal microscopy. C Effects of ^mPO-6 on the cell viability in the presence of IL-3 (n = 4). D and E Effects of ^mPO-6 on the cell viability of the primary AML blasts.
as §1, §2

As for `COC(=O)C[C@](O)(CCCC(C)(C)O)C(=O)O[C@@H]1C(OC)=C[C@]23CCCN2CCc2cc4c(cc2[C@H]13)OCO4` [homoharringtonine], the entries for the “median survival of AML mice treated with HHT” value in the test with AE & CKIT^D816V mice and with AE & CKIT^D816V mice (listed as HHT) were “did not respond” and “did not prolong the AML mice median survival significantly”, respectively.
Take DDDYDTRAQGTDIGCDFRRISDDD [PO-6]: the “binding to HL-60 cells” value in test [1] was “weakly bind”. Also, the “binding to K562 cells” value in test [2] was “weakly bind”. Also, the “binding to MOLM-13 cells” value in test [3] was “effectively bind”.
On to `Nc1ccn([C@@H]2O[C@H](CO)[C@@H](O)[C@@H]2O)c(=O)n1` [cytarabine hydrochloride], for which the figures for the “median survival of AML mice treated with Ara-C” value in the test on AE & CKIT^D816V mice and with AE & CKIT^D816V mice (listed as Ara-C) were “did not respond” and “not prolonged”, respectively.
